Results published in patent US8231916B2, “Use of a rice protein hydrolysate as pigmenting active principle” (Laboratoires Expanscience, priority 2006, dated 2012).

Test system: human cutaneous fibroblasts
Test: Intracellular glutathione (GSH) in dermal fibroblasts irradiated with UVA
Format: cell-based
Details: 5 mM, 15 J/cm^2 UVA
Protocol: Dermal fibroblasts were inoculated in 60 mm petri dishes. The cells were pre-treated for 18 hours with 5 mM rice peptides or N-acetyl-cysteine (NAC=reference antioxidant molecule) and then irradiated at a dose of 15 J/cm^2 UVA. After irradiation, the fibroblasts were incubated for an additional 3 h at 37° C.
At the end of the treatment, two series of samples were collected in order to evaluate: • a. Total quantity of proteins according to the Lowry method. • b. The ratio of intracellular glutathione by assay (commercial kit).

CC(=O)N[C@@H](CS)C(=O)O [NAC, N-acetyl-cysteine]
GSH (μmol/g proteins): 28.209 μmol/g proteins
GSH, % increase compared to irradiated control cells: 29%
GSH (18 hours pre-treatment): 21.10 µM
